The compounds below were run against Pim-1 (Homo sapiens (Human), UniProt P11309) (assay: Pim kinase binding activity assay (Example 901), PIM-1 enzyme, Caliper microfluidic peptide phosphorylation). Settings: 20 pM PIM-1, 10 μM ATP, 1 μM FAM-peptide, 90 minutes at room temperature.
Format: biochemical
Outline: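 PIM-1 at 20 pM phosphorylated 1 μM FAM-labelled Pim peptide with 10 μM ATP in HEPES pH 7.2, MgCl2, Tween 20 and DTT for 90 min at room temperature. EDTA stopped the reaction, and product and substrate were resolved by microfluidic electrophoresis (ex 488/em 530 nm). Ki was derived from substrate conversion.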

Sequence of Pim-1 (P11309 whole entry): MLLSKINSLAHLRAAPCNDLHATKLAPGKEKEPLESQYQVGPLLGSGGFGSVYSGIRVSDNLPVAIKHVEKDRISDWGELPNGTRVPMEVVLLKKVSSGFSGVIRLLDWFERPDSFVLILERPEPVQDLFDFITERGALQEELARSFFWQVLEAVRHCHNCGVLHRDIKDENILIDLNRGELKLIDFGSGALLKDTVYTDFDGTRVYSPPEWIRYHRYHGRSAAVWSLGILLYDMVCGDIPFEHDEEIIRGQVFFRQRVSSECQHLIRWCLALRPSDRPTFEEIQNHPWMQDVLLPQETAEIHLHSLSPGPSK

| SMILES | Ki |
| --- | --- |
| c1ccc(-c2n[nH]c3cnc(-c4cnccn4)cc23)cc1 [Example 214, 3-phenyl-5-(pyrazin-2-yl)-1H-pyrazolo[3,4-c]pyridine] | 41.6 nM |
| c1cncc(-c2cc3c(-c4ccn(C5CCNCC5)n4)n[nH]c3cn2)c1 [Example 215, 3-(1-(piperidin-4-yl)-1H-pyrazol-3-yl)-5-(pyridin-3-yl)-1H-pyrazolo[3,4-c]pyridine] | 0.313 nM |
| Cn1cc(-c2cc3c(-c4cccc(N5C[C@@H]6C[C@H]5CN6)n4)n[nH]c3cn2)cn1 [Example 216, 3-(6-((1S,4S)-2,5-diazabicyclo[2.2.1]heptan-2-yl)pyridin-2-yl)-5-(1-methyl-1H-pyrazol-4-yl)-1H-pyrazolo[3,4-c]pyridine] | 0.126 nM |
| Fc1ccccc1-c1n[nH]c2cnc(-c3cnc[nH]3)cc12 [Example 218, 3-(2-fluorophenyl)-5-(1H-imidazol-5-yl)-1H-pyrazolo[3,4-c]pyridine] | 30.9 nM |
| Fc1ccccc1-c1n[nH]c2cnc(-c3cnccn3)cc12 [Example 219, 3-(2-fluorophenyl)-5-(pyrazin-2-yl)-1H-pyrazolo[3,4-c]pyridine] | 33.5 nM |
| Fc1ccccc1-c1n[nH]c2cnc(-c3cnccc3OCCC3CCNCC3)cc12 [Example 220, 3-(2-fluorophenyl)-5-(4-(2-(piperidin-4-yl)ethoxy)pyridin-3-yl)-1H-pyrazolo[3,4-c]pyridine] | 0.379 nM |
| Cn1cc(-c2n[nH]c3cnc(-c4cncc(N5CCC(N)CC5)n4)cc23)cn1 [Example 221, 1-(6-(3-(1-methyl-1H-pyrazol-4-yl)-1H-pyrazolo[3,4-c]pyridin-5-yl)pyrazin-2-yl)piperidin-4-amine] | 0.096 nM |
| Cn1cc(-c2cc3c(-c4cccc(N5CCC[C@@H](N)C5)c4)n[nH]c3cn2)cn1 [Example 222, (R)-1-(3-(5-(1-methyl-1H-pyrazol-4-yl)-1H-pyrazolo[3,4-c]pyridin-3-yl)phenyl)piperidin-3-amine] | 0.387 nM |
| CN1CCN(c2cc3c(-c4cccc(N5CCNCC5)n4)n[nH]c3cn2)CC1=O [Example 223, 1-methyl-4-(3-(6-(piperazin-1-yl)pyridin-2-yl)-1H-pyrazolo[3,4-c]pyridin-5-yl)piperazin-2-one] | 38.5 nM |
| C1=C(c2n[nH]c3cnc(-c4cccnc4)cc23)CCC1 [Example 225, 3-cyclopentenyl-5-(pyridin-3-yl)-1H-pyrazolo[3,4-c]pyridine] | 2.83 nM |
| Cn1cc(-c2cc3c(-c4cccc(N5CCCCC(N)C5)n4)n[nH]c3cn2)cn1 (stereo not shown) [Example 226, 1-(6-(5-(1-methyl-1H-pyrazol-4-yl)-1H-pyrazolo[3,4-c]pyridin-3-yl)pyridin-2-yl)azepan-3-amine] | 0.051 nM |
| c1cncc(-c2cc3c(C4CCCC4)n[nH]c3cn2)c1 [Example 228, 3-cyclopentyl-5-(pyridin-3-yl)-1H-pyrazolo[3,4-c]pyridine] | 43 nM |
| NC(=O)C1(N)CCN(c2cccc(-c3n[nH]c4cnc(-c5cccnc5)cc34)n2)CC1 [Example 229, 4-amino-1-(6-(5-(pyridin-3-yl)-1H-pyrazolo[3,4-c]pyridin-3-yl)pyridin-2-yl)piperidine-4-carboxamide] | 0.22 nM |
| Cn1ccc(-c2n[nH]c3cnc(-c4cccnc4)cc23)n1 [Example 232, 3-(1-methyl-1H-pyrazol-3-yl)-5-(pyridin-3-yl)-1H-pyrazolo[3,4-c]pyridine] | 7.16 nM |
| Cn1ccc(-c2n[nH]c3cnc(-c4cncc(N5CCC(N)CC5)n4)cc23)n1 [Example 233, 1-(6-(3-(1-methyl-1H-pyrazol-3-yl)-1H-pyrazolo[3,4-c]pyridin-5-yl)pyrazin-2-yl)piperidin-4-amine] | 0.051 nM |
| Cn1cc(-c2cc3c(-c4cccc(N5CCNCC5)n4)n[nH]c3cn2)cn1 [Example 234, 5-(1-methyl-1H-pyrazol-4-yl)-3-(6-(piperazin-1-yl)pyridin-2-yl)-1H-pyrazolo[3,4-c]pyridine] | 0.036 nM |
| N#CCc1cc2c(-c3cccc(N4CCNCC4)n3)n[nH]c2cn1 [Example 235, 2-(3-(6-(piperazin-1-yl)pyridin-2-yl)-1H-pyrazolo[3,4-c]pyridin-5-yl)acetonitrile] | 583 nM |
| CNC(=O)C1(N)CCN(c2cccc(-c3n[nH]c4cnc(-c5cccnc5)cc34)n2)CC1 [Example 236, 4-amino-N-methyl-1-(6-(5-(pyridin-3-yl)-1H-pyrazolo[3,4-c]pyridin-3-yl)pyridin-2-yl)piperidine-4-carboxamide] | 0.353 nM |
| NCC[C@H]1CCCN(c2cccc(-c3n[nH]c4cnc(-c5cccnc5)cc34)n2)C1 [Example 237, (R)-2-(1-(6-(5-(pyridin-3-yl)-1H-pyrazolo[3,4-c]pyridin-3-yl)pyridin-2-yl)piperidin-3-yl)ethanamine] | 0.042 nM |
| N[C@@H]1CCC[C@H](Nc2cccc(-c3n[nH]c4cnc(-c5cccnc5)cc34)n2)C1 [Example 239, (1S,3R)—N1-(6-(5-(pyridin-3-yl)-1H-pyrazolo[3,4-c]pyridin-3-yl)pyridin-2-yl)cyclohexane-1,3-diamine] | 0.3 nM |
| N#Cc1cc(-c2n[nH]c3cnc(-c4cccnc4)cc23)cc(N2CCNCC2)c1 [Example 240, 3-(piperazin-1-yl)-5-(5-(pyridin-3-yl)-1H-pyrazolo[3,4-c]pyridin-3-yl)benzonitrile] | 5.28 nM |
| NCC[C@@H]1CCCN(c2cccc(-c3n[nH]c4cnc(-c5cccnc5)cc34)n2)C1 [Example 242, (S)-2-(1-(6-(5-(pyridin-3-yl)-1H-pyrazolo[3,4-c]pyridin-3-yl)pyridin-2-yl)piperidin-3-yl)ethanamine] | 0.03 nM |
| Cc1ccc(-c2n[nH]c3cnc(-c4cccnc4)cc23)nc1N1CCC(N)CC1 [Example 243, 1-(3-methyl-6-(5-(pyridin-3-yl)-1H-pyrazolo[3,4-c]pyridin-3-yl)pyridin-2-yl)piperidin-4-amine] | 0.049 nM |

Continued, values first:

| Ki | SMILES |
| --- | --- |
| 0.224 nM | Cn1cc(-c2cc3c(-c4cccc(C5CCNCC5)n4)n[nH]c3cn2)cn1 [Example 247, 5-(1-methyl-1H-pyrazol-4-yl)-3-(6-(piperidin-4-yl)pyridin-2-yl)-1H-pyrazolo[3,4-c]pyridine] |
| 0.389 nM | Cn1cc(-c2cc3c(-c4cnn(CC(C)(C)O)c4)n[nH]c3cn2)cn1 [Example 250, 2-methyl-1-(4-(5-(1-methyl-1H-pyrazol-4-yl)-1H-pyrazolo[3,4-c]pyridin-3-yl)-1H-pyrazol-1-yl)propan-2-ol] |
| 0.04 nM | Cn1cc(-c2cc3c(-c4cccc(N[C@H]5CC[C@@H](N)CC5)n4)n[nH]c3cn2)cn1 [Example 251, (1s,4s)-N1-(6-(5-(1-methyl-1H-pyrazol-4-yl)-1H-pyrazolo[3,4-c]pyridin-3-yl)pyridin-2-yl)cyclohexane-1,4-diamine] |
| 10 nM | c1cncc(-c2cc3c(N4CCCC4)n[nH]c3cn2)c1 [Example 252, 5-(pyridin-3-yl)-3-(pyrrolidin-1-yl)-1H-pyrazolo[3,4-c]pyridine] |
| 171 nM | NC(=O)Cc1cc2c(-c3cccc(N4CCNCC4)n3)n[nH]c2cn1 [Example 253, 2-(3-(6-(piperazin-1-yl)pyridin-2-yl)-1H-pyrazolo[3,4-c]pyridin-5-yl)acetamide] |
| 18.5 nM | CN1CCN(c2n[nH]c3cnc(-c4cccnc4)cc23)C1=O [Example 254, 1-methyl-3-(5-(pyridin-3-yl)-1H-pyrazolo[3,4-c]pyridin-3-yl)imidazolidin-2-one] |
| 0.113 nM | CN1CCN(c2nc(-c3n[nH]c4cnc(-c5cccnc5)cc34)ccc2Cl)CC1 [Example 255, 3-(5-chloro-6-(4-methylpiperazin-1-yl)pyridin-2-yl)-5-(pyridin-3-yl)-1H-pyrazolo[3,4-c]pyridine] |
| 1500 nM | c1ccc(-c2cc3c(-c4ccccn4)n[nH]c3cn2)nc1 [Example 256, 3,5-di(pyridin-2-yl)-1H-pyrazolo[3,4-c]pyridine] |
| 0.032 nM | Cc1ccc(-c2n[nH]c3cnc(-c4cccnc4)cc23)nc1N1CCN(C)CC1 [Example 257, 3-(5-methyl-6-(4-methylpiperazin-1-yl)pyridin-2-yl)-5-(pyridin-3-yl)-1H-pyrazolo[3,4-c]pyridine] |
| 80.9 nM | O=C1CCCN1c1n[nH]c2cnc(-c3cccnc3)cc12 [Example 258, 1-(5-(pyridin-3-yl)-1H-pyrazolo[3,4-c]pyridin-3-yl)pyrrolidin-2-one] |
| 920 nM | CN1CC(c2cc3c(-c4ccccc4)n[nH]c3cn2)=CC1=O [Example 259, 1-methyl-4-(3-phenyl-1H-pyrazolo[3,4-c]pyridin-5-yl)-1H-pyrrol-2(5H)-one] |
| 1100 nM | O=C1CCCCN1c1n[nH]c2cnc(-c3cccnc3)cc12 [Example 260, 1-(5-(pyridin-3-yl)-1H-pyrazolo[3,4-c]pyridin-3-yl)piperidin-2-one] |
| 241 nM | CN1CC(c2cc3c(-c4ccccc4)n[nH]c3cn2)CC1=O (stereo not shown) [Example 263, 1-methyl-4-(3-phenyl-1H-pyrazolo[3,4-c]pyridin-5-yl)pyrrolidin-2-one] |
| 0.27 nM | Cn1cc(-c2cc3c(-c4cccc(O[C@@H]5CCCNC5)n4)n[nH]c3cn2)cn1 [Example 264, (R)-5-(1-methyl-1H-pyrazol-4-yl)-3-(6-(piperidin-3-yloxy)pyridin-2-yl)-1H-pyrazolo[3,4-c]pyridine] |
| 0.019 nM | N[C@H]1CCCN(c2nc(-c3n[nH]c4cnc(-c5cccnc5)cc34)ccc2Cl)C1 [Example 265, (S)-1-(3-chloro-6-(5-(pyridin-3-yl)-1H-pyrazolo[3,4-c]pyridin-3-yl)pyridin-2-yl)piperidin-3-amine] |
| 0.06 nM | N[C@@H]1CCCN(c2nc(-c3n[nH]c4cnc(-c5cccnc5)cc34)ccc2Cl)C1 [Example 266, (R)-1-(3-chloro-6-(5-(pyridin-3-yl)-1H-pyrazolo[3,4-c]pyridin-3-yl)pyridin-2-yl)piperidin-3-amine] |
| 0.0268 nM | N[C@H]1CCN(c2cccc(-c3n[nH]c4cnc(-c5cccnc5)cc34)n2)C1 [Example 268, (S)-1-(6-(5-(pyridin-3-yl)-1H-pyrazolo[3,4-c]pyridin-3-yl)pyridin-2-yl)pyrrolidin-3-amine] |

Source: US9260425B2 (Genetech, Inc., priority 2011, dated 2016)
